The test system of the experiment is P388 leukemia ip, CD2F1 mice, survival T/C. Description: NCI In Vivo Anticancer Drug Screen. Data for tumor model P388 Leukemia (intraperitoneal) in CD2F1 (CDF1) mice. The settings on record: endpoint: median survival time, higher = longer survival. A digest of the protocol:
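Mice carrying the transplanted tumor received test compound or vehicle. Survival was recorded in each group, and the value is the treated-group measurement divided by that of the vehicle-treated control group.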

Setting [1] is: dose: 60.0 mg/kg/injection, schedule: Q01DX005 (ip), vehicle: saline with Tween-80.
Where [2] appears, read: dose: 120.0 mg/kg/injection, schedule: Q01DX005 (ip), vehicle: saline with Tween-80.
[3] abbreviates: dose: 240.0 mg/kg/injection, schedule: Q01DX005 (ip), vehicle: saline with Tween-80.
The mark [4] stands for this setting: dose: 50.0 mg/kg/injection, schedule: Q01DX005 (ip), vehicle: Klucel (hydroxypropylcellulose) (HPC).
Setting [5] is: dose: 100.0 mg/kg/injection, schedule: Q01DX005 (ip), vehicle: Klucel (hydroxypropylcellulose) (HPC).
Where [6] appears, read: dose: 200.0 mg/kg/injection, schedule: Q01DX005 (ip), vehicle: Klucel (hydroxypropylcellulose) (HPC).
Setting [7] is: dose: 25.0 mg/kg/injection, schedule: Q01DX009 (ip), vehicle: Klucel (hydroxypropylcellulose) (HPC).
The mark [8] stands for this setting: dose: 50.0 mg/kg/injection, schedule: Q01DX009 (ip), vehicle: Klucel (hydroxypropylcellulose) (HPC).
The mark [9] stands for this setting: dose: 100.0 mg/kg/injection, schedule: Q01DX009 (ip), vehicle: Klucel (hydroxypropylcellulose) (HPC).
Setting [10] is: dose: 50.0 mg/kg/injection, schedule: Q01DX009 (ip), vehicle: saline.
[11] abbreviates: dose: 100.0 mg/kg/injection, schedule: Q01DX009 (ip), vehicle: saline.
Where [12] appears, read: dose: 200.0 mg/kg/injection, schedule: Q01DX009 (ip), vehicle: saline.

Where “and” joins values, the source holds several entries; their conditions need not be identical. Equal entries are not always repeated. Toxic doses and inconclusive results are not listed.

Turning to `O=C1C(N2CCOCC2)=C(N2CC2)C(=O)C(N2CCOCC2)=C1N1CC1`, the T/C (dose: 0.25 mg/kg/injection, schedule: Q01DX009 (ip), vehicle: saline) is 119 % of control; the T/C (dose: 0.5 mg/kg/injection, schedule: Q01DX009 (ip), vehicle: saline) is 152 % of control; the T/C (dose: 0.66 mg/kg/injection, schedule: Q01DX009 (ip), vehicle: saline) was 153 % of control; the T/C (dose: 1.0 mg/kg/injection, schedule: Q01DX009 (ip), vehicle: saline) is 152 % of control and 161 % of control; the T/C (dose: 1.5 mg/kg/injection, schedule: Q01DX009 (ip), vehicle: saline) is 170 % of control.

With `COC(=O)c1cc(-c2ccc(F)cc2)[nH]c(=O)c1C#N`, the T/C was 97 % of control under setting [1], 106 % of control under setting [2] and 104 % of control under setting [3].

As to `CC(C)N(C(C)C)P1N(C(C)(C)C)N=NN1C(C)(C)C`, the T/C is, setting by setting: (dose: 12.5 mg/kg/injection, schedule: Q01DX005 (ip), vehicle: Klucel (hydroxypropylcellulose) (HPC)) 102 % of control; (dose: 25.0 mg/kg/injection, schedule: Q01DX005 (ip), vehicle: Klucel (hydroxypropylcellulose) (HPC)) 100 % of control; under setting [4], 102 % of control and 107 % of control.

`Cc1oc2c(c(C)nn2-c2ccccc2)c(=O)c1Cl`: the T/C is 92 % of control under setting [4], 106 % of control under setting [5] and 108 % of control under setting [6].

Regarding `NC(=O)c1cc([N+](=O)[O-])cc([N+](=O)[O-])c1`, the T/C runs as follows: under setting [7], 103 % of control; under setting [8], 88 % of control; under setting [9], 91 % of control.

On to `S=c1nc[nH]c2c1ncn2C1CCCO1` (stereo unspecified), for which the T/C is 100 % of control (dose: 100.0 mg/kg/injection, schedule: Q04DX003 (ip), vehicle: saline with Tween-80) and 118 % of control (dose: 200.0 mg/kg/injection, schedule: Q04DX003 (ip), vehicle: saline with Tween-80).

Consider `[NH-]C(CCC(N)=O)C(=O)O.[NH-]C(CCCCN)C(=O)O.[Zn+2]` (stereo unspecified), for which the T/C by setting is: (dose: 12.5 mg/kg/injection, schedule: Q01DX005 (ip), vehicle: saline) 102 % of control; (dose: 25.0 mg/kg/injection, schedule: Q01DX005 (ip), vehicle: saline) 105 % of control; (dose: 50.0 mg/kg/injection, schedule: Q01DX005 (ip), vehicle: saline) 110 % of control.

Regarding `O=Nc1ccc(O)c2ncccc12`, the T/C is, setting by setting: (dose: 50.0 mg/kg/injection, schedule: Q01DX001 (ip), vehicle: Klucel (hydroxypropylcellulose) (HPC)) 111 % of control; (dose: 100.0 mg/kg/injection, schedule: Q01DX001 (ip), vehicle: Klucel (hydroxypropylcellulose) (HPC)) 121 % of control.

Regarding `CC(=O)N1CC(O)(c2ccccc2)CSc2ccccc21` (stereo unspecified), the T/C was 95 % of control under setting [4], 95 % of control under setting [5] and 96 % of control under setting [6].

Consider `CCOC(=O)C1=C(C(=O)c2ccc(OC)cc2)C(c2ccc([N+](=O)[O-])cc2)C(C(=O)c2ccc(OC)cc2)=C(C(=O)OCC)N1`, for which the T/C by setting is: under setting [1], 89 % of control; under setting [2], 89 % of control; under setting [3], 93 % of control.

For `O=C(c1cccs1)C1SC(C(=O)c2cccs2)C2(O)c3cccc4cccc(c34)C12O` (stereo unspecified), the T/C (dose: 7.5 mg/kg/injection, schedule: Q01DX009 (ip), vehicle: Klucel (hydroxypropylcellulose) (HPC)) is 100 % of control.

As for `CC(=O)NC(Cc1c[nH]c2ccccc12)C(=O)Oc1ccc([N+](=O)[O-])cc1` (stereo unspecified), the T/C is 95 % of control under setting [10], 98 % of control under setting [11] and 92 % of control under setting [12].

For the compound `O=c1c(Cl)c2oc3cc([N+](=O)[O-])ccc3nc-2c(Cl)c1Cl`, the T/C reads like this: under setting [8], 107 % of control; under setting [9], 99 % of control; (dose: 200.0 mg/kg/injection, schedule: Q01DX009 (ip), vehicle: Klucel (hydroxypropylcellulose) (HPC)) 91 % of control.

In the case of `CC(=O)OC1CCC(C2CCCCC2)CC1` (stereo unspecified), the T/C is, setting by setting: under setting [11], 102 % of control; under setting [12], 97 % of control; (dose: 400.0 mg/kg/injection, schedule: Q01DX009 (ip), vehicle: saline) 101 % of control.

For `COc1c(OC(C)=O)c(OC(C)=O)cc2c1-c1ccc(OC)c(=O)cc1C(NC(C)=O)CC2` (stereo unspecified), the T/C is 117 % of control (dose: 0.25 mg/kg/injection, schedule: Q01DX005 (ip), vehicle: saline); 123 % of control (dose: 0.5 mg/kg/injection, schedule: Q01DX005 (ip), vehicle: saline); 155 % of control (dose: 4.0 mg/kg/injection, schedule: Q01DX005 (ip), vehicle: saline); 163 % of control (dose: 8.0 mg/kg/injection, schedule: Q01DX005 (ip), vehicle: saline); 172 % of control (dose: 16.0 mg/kg/injection, schedule: Q01DX005 (ip), vehicle: saline).

As to `CCCCCCCCN1CSC(=S)N(c2ccc3[nH]c(=S)sc3c2)C1`, the T/C was 94 % of control (dose: 6.25 mg/kg/injection, schedule: Q01DX009 (ip), vehicle: Klucel (hydroxypropylcellulose) (HPC)); 106 % of control (dose: 12.5 mg/kg/injection, schedule: Q01DX009 (ip), vehicle: Klucel (hydroxypropylcellulose) (HPC)); 94 % of control under setting [7].

With `O=S(=O)(O)C(O)C(F)(F)C(F)(F)C(F)(F)C(F)(F)C(O)S(=O)(=O)O` (stereo unspecified), the T/C reads like this: (dose: 60.0 mg/kg/injection, schedule: Q01DX005 (ip), vehicle: saline) 103 % of control; (dose: 120.0 mg/kg/injection, schedule: Q01DX005 (ip), vehicle: saline) 103 % of control; (dose: 240.0 mg/kg/injection, schedule: Q01DX005 (ip), vehicle: saline) 103 % of control.

Turning to `COc1cc(=O)cc2n(-c3cc(OC)c(O)c(OC)c3)c3ccccc3nc1-2`, the T/C was 100 % of control (dose: 12.5 mg/kg/injection, schedule: Q01DX009 (ip), vehicle: saline); 104 % of control (dose: 25.0 mg/kg/injection, schedule: Q01DX009 (ip), vehicle: saline); 102 % of control and 88 % of control under setting [10]; 98 % of control under setting [12].

On to `N#CC(C(=O)C(=O)Nc1cccc(C(F)(F)F)c1)c1ccc(Cl)cc1Cl` (stereo unspecified), for which the T/C under setting [1] is 94 % of control, the T/C under setting [2] was 91 % of control and the T/C under setting [3] is 92 % of control.

For the compound `Cc1ccnc(Nc2nnc(Nc3cc(C)ccn3)c3ccccc23)c1`, the T/C by setting is: (dose: 50.0 mg/kg/injection, schedule: Q01DX005 (ip), vehicle: saline with Tween-80) 100 % of control; (dose: 100.0 mg/kg/injection, schedule: Q01DX005 (ip), vehicle: saline with Tween-80) 97 % of control; (dose: 200.0 mg/kg/injection, schedule: Q01DX005 (ip), vehicle: saline with Tween-80) 97 % of control.

Regarding `CC(=O)OCCC/C(=C\c1c2ccccc2cc2ccccc12)[N+](=O)[O-]`, the T/C (dose: 60.0 mg/kg/injection, schedule: Q01DX005 (ip), vehicle: suspension in saline) was 100 % of control; the T/C (dose: 120.0 mg/kg/injection, schedule: Q01DX005 (ip), vehicle: suspension in saline) is 102 % of control; the T/C (dose: 240.0 mg/kg/injection, schedule: Q01DX005 (ip), vehicle: suspension in saline) is 97 % of control.

For the compound `O=C(O)c1c(-c2ccccc2)sc2ccccc2c1=O`, the T/C is, setting by setting: (dose: 100.0 mg/kg/injection, schedule: Q01DX001 (ip), vehicle: saline with Tween-80) 99 % of control; (dose: 200.0 mg/kg/injection, schedule: Q01DX001 (ip), vehicle: saline with Tween-80) 99 % of control; (dose: 400.0 mg/kg/injection, schedule: Q01DX001 (ip), vehicle: saline with Tween-80) 99 % of control.

As for `NS(=O)(=O)c1ccc(CN2C(=O)c3ccccc3C2=O)cc1`, for the setting “dose: 100.0 mg/kg/injection, schedule: Q04DX002 (ip), vehicle: saline with Tween-80”, the T/C is 110 % of control.

Turning to `Cc1ccc(NC(=O)CCSC(=O)Nc2ccc(C)cc2)cc1`, the T/C by setting is: (dose: 100.0 mg/kg/injection, schedule: Q04DX002 (ip), vehicle: Klucel (hydroxypropylcellulose) (HPC)) 101 % of control; (dose: 200.0 mg/kg/injection, schedule: Q04DX002 (ip), vehicle: Klucel (hydroxypropylcellulose) (HPC)) 104 % of control; (dose: 400.0 mg/kg/injection, schedule: Q04DX002 (ip), vehicle: Klucel (hydroxypropylcellulose) (HPC)) 104 % of control.

The record behind these values is PubChem BioAssay AID330 (DTP/NCI, 2004).
